According to patent publication US9006282B2 (Redx Pharma Limited, priority 2009, dated 2015):
pIC50: −log10 of the molar value.

Key:
HMG-CoA Reductase = HMG-CoA Reductase (Homo sapiens (Human), UniProt P04035); assay: HMG-CoA Reductase assay kit (Sigma-Aldrich CS1090), spectrophotometric NADPH absorbance at 340 nm; type: biochemical; conditions: inhibitor varied 0 nM to 50 nM, NADPH and HMG-CoA 200 μM
Procedure: All assays were carried out in a reaction buffer containing […] KxPO4 at pH 7.2, 1 mM EDTA, 500 mM KCl and 1 mg/ml BSA. The concentrations of NADPH and HMG-CoA were both 200 μM. […] Absorbance readings were then taken every 20 seconds for 600 seconds.
Preparation of the Assay Solution
Add a buffer to all samples. • b. […] Add the reconstituted NADPH to all samples. • d. Add Substrate Solution (HMG-CoA) to all samples. • e. […] Mix the samples thoroughly.
3. The kinetics programme was started immediately.
V=volume of enzyme used in the assay (ml)
0.6=enzyme concentration in mg-protein (mgPO/ml (0.55-0.65 mgP/ml)
LP=light path in cm (1 for cuvettes).

[1] = test system: rat plasma triglyceride levels; assay: Rat plasma triglyceride levels after 3 or 5 days BID oral treatment; type: in vivo; conditions: male SD rats, 25 mg/kg po BID for 3 or 5 days, plasma 16 hours after last dose

HMG-CoA Reductase, sequence (P04035 340-888): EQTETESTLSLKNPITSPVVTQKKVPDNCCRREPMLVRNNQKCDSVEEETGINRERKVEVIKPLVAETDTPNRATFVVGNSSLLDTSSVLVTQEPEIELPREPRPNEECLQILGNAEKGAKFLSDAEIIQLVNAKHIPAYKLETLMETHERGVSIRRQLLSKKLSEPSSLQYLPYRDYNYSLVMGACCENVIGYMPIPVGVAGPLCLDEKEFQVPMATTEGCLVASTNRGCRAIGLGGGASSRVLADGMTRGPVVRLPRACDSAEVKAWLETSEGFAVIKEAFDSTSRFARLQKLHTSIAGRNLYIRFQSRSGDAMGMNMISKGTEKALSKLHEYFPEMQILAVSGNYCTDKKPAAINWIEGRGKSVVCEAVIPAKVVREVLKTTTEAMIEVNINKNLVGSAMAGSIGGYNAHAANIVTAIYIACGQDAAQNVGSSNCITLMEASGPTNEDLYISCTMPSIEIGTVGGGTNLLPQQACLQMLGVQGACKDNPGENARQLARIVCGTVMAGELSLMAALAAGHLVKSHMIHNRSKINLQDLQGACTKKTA

SMILES | pIC50 (HMG-CoA Reductase; rosuvastatin compounds) | pIC50 (HMG-CoA Reductase; atorvastatin compounds) | further results
CC(C)c1nc(N(C)S(C)(=O)=O)nc(-c2ccc(F)cc2)c1/C=C/[C@@H]1C[C@@H](O)CC(OCC(Cl)(Cl)Cl)O1 (some centres unmarked) | 8.70 | – | –
CC(C)c1nc(N(C)S(C)(=O)=O)nc(-c2ccc(F)cc2)c1/C=C/[C@@H]1C[C@@H](O)CC(Oc2c(F)cc(F)cc2F)O1 (some centres unmarked) | 9.00 | – | –
CCCOC1C[C@H](O)C[C@@H](/C=C/c2c(-c3ccc(F)cc3)nc(N(C)S(C)(=O)=O)nc2C(C)C)O1 (some centres unmarked) | 8.00 | – | –
CC(C)c1nc(N(C)S(C)(=O)=O)nc(-c2ccc(F)cc2)c1/C=C/[C@@H]1C[C@@H](OCc2ccccc2)CC(OCC(Cl)(Cl)Cl)O1 (some centres unmarked) | 8.70 | – | –
COC1C[C@H](OC(=O)c2cccnc2)C[C@@H](/C=C/c2c(-c3ccc(F)cc3)nc(N(C)S(C)(=O)=O)nc2C(C)C)O1 (some centres unmarked) | > 9.00 | – | –
CC(C)c1nc(N(C)S(C)(=O)=O)nc(-c2ccc(F)cc2)c1C=CC(O)CC(O)CC(=O)O (centres unmarked) [rosuvastatin, 7-[4-(4-fluorophenyl)-6-(1-methylethyl)-2-(methyl-methylsulfonyl-amino)-pyrimidin-5-yl]-3,5-dihydroxy-hept-6-enoic acid] | – | – | effect on plasma triglycerides [1]: marked reduction in plasma triglycerides
COc1ccc(OC2C[C@H](O)C[C@@H](/C=C/c3c(-c4ccc(F)cc4)nc(N(C)S(C)(=O)=O)nc3C(C)C)O2)c(OC)c1 (some centres unmarked) | 8.70 | – | –

More lines, main results first:

pIC50 (HMG-CoA Reductase; rosuvastatin compounds) | pIC50 (HMG-CoA Reductase; atorvastatin compounds) | SMILES | further results
– | > 9.00 | COc1ccc(OC2C[C@H](O)C[C@@H](CCn3c(-c4ccc(F)cc4)c(-c4ccccc4)c(C(=O)Nc4ccccc4)c3C(C)C)O2)c(OC)c1 (some centres unmarked) | –
– | > 9.00 | CCCOC1C[C@H](O)C[C@@H](CCn2c(-c3ccc(F)cc3)c(-c3ccccc3)c(C(=O)Nc3ccccc3)c2C(C)C)O1 (some centres unmarked) | –
– | > 9.00 | CC(C)c1c(C(=O)Nc2ccccc2)c(-c2ccccc2)c(-c2ccc(F)cc2)n1CC[C@@H]1C[C@@H](O)CC(OC2CCCCC2)O1 (some centres unmarked) | –
– | > 9.00 | COC1C[C@H](OC(=O)c2cccnc2)C[C@@H](CCn2c(-c3ccc(F)cc3)c(-c3ccccc3)c(C(=O)Nc3ccccc3)c2C(C)C)O1 (some centres unmarked) | –
